{
  "source": "patent US11198869B2",
  "about": "“Angelman syndrome antisense treatment” (The Texas A&M University System, priority 2017, dated 2021)",
  "test_system": "UBE3A",
  "assay": "UBE3A steady state RNA (qRT-PCR) in GABAergic iPSC-derived neurons",
  "type": "cell-based, human",
  "conditions": "for increase of UBE3A RNA levels: 10 μM; for Difference, UBE3A RNA level: ASOs 10 μM; for effect on UBE3A RNA levels (in words): treated 29 DIV, RNA 35 DIV, 10-point dose curve",
  "protocol": "Human-specific ASOs were then designed to target this region, which included four ASOs targeting non-polymorphic regions in human and regions conserved (100%) with macaque (Rhesus and Cynomolgus) (Table 7 and FIG. 3A). Human induced pluripotent stem cell (iPSC) neural precursor cells were differentiated into GABAergic neurons for 14 DIV and then treated with a control ASO [ASO-C (10 μM, n=3)], Topotecan [Topo (1 μM, n=2)], and six ASOs targeting UBE3A-AS [ASO-1, ASO-2, ASO-3, ASO-4, ASO-5, and ASO-6 (10 μM, n=3)]. Additionally, an ASO targeting an intronic region downstream of SNORD109B was included (ASO-7). Six days post-treatment (20 DIV), RNA was isolated from the neurons and the steady state RNA levels of UBE3A-AS and UBE3A were estimated relative to the control treatment (FIG. 3B).\nThe effects of ASO-4 and Topotecan were then examined on the SNORD116, IPW, SNORD115, and SNORD109A RNAs, which are located upstream of the ASO-4 target region (see FIG. 1A).\nThe potency of ASO-4 was further examined in iPSC-derived neurons at a later time point in differentiation. GABAergic iPSC-derived neurons were treated at 59 DIV with a control ASO [ASO-C, 10 μM (n=3)] and ASO-4 [1 uM, 5 μM, and 10 μM (n=3)], and the steady state RNA levels of UBE3A-AS and UBE3A were measured as described above (FIG. 4G). Unlike neurons treated with ASO-4 at an earlier time point, the RNA levels of UBE3A and UBE3A-AS were highly inversely correlated (FIGS. 4H and 4I). For example, the effect of ASO-4 (10 μM) on UBE3A-AS RNA levels was similar between neurons treated at 14 and 59 DIV [20 DIV: UBE3A-AS: ↓87% (95% confidence intervals (CI): 80 to 95%); 65 DIV: ↓81% (95% CI: 74 to 88%)], whereas the effect of ASO-4 on UBE3A RNA levels was substantially larger in neurons treated at 59 DIV [20 DIV: ↑30% (95% CI: 16 to 44%); 65 DIV: ↑86% (95% CI: 59% to 113%)].\nThe potency of ASO-4 and ASO-6.1 was further examined in iPSC-derived neurons at a later time point in differentiation. GABAergic iPSC-derived neurons were treated at 29 DIV with a 10-point ½ log dose response curve of ASO-4 and ASO-6.1 [1 nM, 3 nM, 10 nM, 30 nM, 100 nM, 300 nM, 1 μM, 3 μM, 10 μM, and 30 μM (n=3)]. At 35 DIV, the IC50 and Emax of each ASO was estimated as described above (FIG. 5C-D and Table 14). The dose response curves of ASO-4 and ASO-6.1 were not similar (Parallelism test: F(3,172)=22.7, p<0.0001).\nGABAergic and glutamatergic induced pluripotent stem cell (iPSC) derived neural precursor cells (NRC-100-010-001 and GNC-301-030-001, Cellular Dynamics International, Madison Wis.) were differentiated into neurons according to the manufactures protocol. Briefly, neural precursor cells were thawed and resuspended in chemically defined medium and added to sterile-culture plates coated with poly-D-lysine and laminin. The medium was replaced 24 hr after plating and then one-half of the medium was replaced every 3-5 days afterwards.\nFor cultured iPSC-derived neurons, RNA isolation and cDNA synthesis were performed using the Cell-to-CT kit (Thermo Fisher Scientific) in a lysate volume of 55 μl.\nThe steady state RNA levels of target transcripts were measured using TaqMan quantitative reverse-transcription PCR (qRT-PCR) assays. Total reaction volume was 10 uL, including 2 μl of cDNA, 1× Gene Expression Master mix (4369016, Thermo Fisher Scientific, Waltham, Mass.), and 1× TaqMan primer assay (Thermo Fisher Scientific). Cycling conditions were 2 minutes at 50° C., 10 minutes at 95° C., and 40 cycles of 15 seconds at 95° C. and 1 minute at 60° C., with readings taken at the 60° C. step of every cycle. Reactions were run on a BIO-RAD T1000 CFX96 thermocycler (Bio-Rad Laboratories, Hercules Calif.), with internal control (PPIA, Hs99999904_m1, Thermo Fisher Scientific) and target [UBE3A-AS, Hs01372957_m1; SNORD116-11, Hs04275268_gH; SNORD115, Hs04275288_gH; IPW, Hs03455409_s1; SNORD109A/B, AP47WVR (Thermo Fisher Scientific); UBE3A: forward […] (SEQ ID NO:500); reverse: […]",
  "key": {"[1]": {"conditions": "Topo 1 μM, 14 DIV to 20 DIV, labelled treatment minus ASO-3"}, "[2]": {"conditions": "Topo 1 μM, 14 DIV to 20 DIV, labelled treatment minus ASO-5"}, "[3]": {"conditions": "Topo 1 μM, 14 DIV to 20 DIV, labelled treatment minus ASO-6"}, "[4]": {"conditions": "Topo 1 μM, 14 DIV to 20 DIV, labelled treatment minus ASO-R"}, "[5]": {"conditions": "Topo 1 μM, treated 14 DIV, RNA 20 DIV, normalized to ASO-C, labelled treatment minus ASO-C"}, "[6]": {"conditions": "14 DIV to 20 DIV, labelled treatment minus ASO-1"}, "[7]": {"conditions": "14 DIV to 20 DIV, labelled treatment minus Topo (1 μM)"}},
  "data": [
    {"compound": "U^O*A^O*G^O*A^O*A^O*t*g*g*c*a*c*a*t*c*t*C^O*U^O*U^O*G^O*G^O [ASO-4]", "values": [
      {"measurement": "increase of UBE3A RNA levels", "setting": "treated 14 DIV, RNA 20 DIV", "result": 30, "unit": "%"},
      {"measurement": "increase of UBE3A RNA levels", "setting": "treated 59 DIV, RNA 65 DIV", "result": 86, "unit": "%"},
      {"measurement": "Difference, UBE3A RNA level", "setting": "[1]", "result": 0.17},
      {"measurement": "Difference, UBE3A RNA level", "setting": "[2]", "result": 0.13},
      {"measurement": "Difference, UBE3A RNA level", "setting": "[3]", "result": 0.13},
      {"measurement": "Difference, UBE3A RNA level", "setting": "[4]", "result": 0.29},
      {"measurement": "Difference, UBE3A RNA level", "setting": "[5]", "result": 0.30},
      {"measurement": "Difference, UBE3A RNA level", "setting": "[6]", "result": 0.11},
      {"measurement": "Difference, UBE3A RNA level", "setting": "14 DIV to 20 DIV, labelled treatment minus ASO-2", "result": 0.08},
      {"measurement": "Difference, UBE3A RNA level", "setting": "[7]", "result": 0.11},
      {"measurement": "effect on UBE3A RNA levels (in words)", "result": "increasing RNA levels in dose dependent manner"}
    ]},
    {"compound": "CC[C@@]1(O)C(=O)OCc2c1cc1n(c2=O)Cc2cc3c(CN(C)C)c(O)ccc3nc2-1", "note": "[Topotecan, reference compound]", "values": [
      {"measurement": "Difference, UBE3A RNA level", "setting": "[1]", "result": 0.05},
      {"measurement": "Difference, UBE3A RNA level", "setting": "[2]", "result": 0.02},
      {"measurement": "Difference, UBE3A RNA level", "setting": "[3]", "result": 0.02},
      {"measurement": "Difference, UBE3A RNA level", "setting": "[4]", "result": 0.18},
      {"measurement": "Difference, UBE3A RNA level", "setting": "[5]", "result": 0.18}
    ]},
    {"compound": "G^O*U^O*A^O*C^O*U^O*c*t*t*c*c*t*c*a*g*t*C^O*A^O*U^O*C^O*C^O [ASO-2]", "values": [
      {"measurement": "Difference, UBE3A RNA level", "setting": "[1]", "result": 0.08},
      {"measurement": "Difference, UBE3A RNA level", "setting": "[2]", "result": 0.05},
      {"measurement": "Difference, UBE3A RNA level", "setting": "[3]", "result": 0.05},
      {"measurement": "Difference, UBE3A RNA level", "setting": "[4]", "result": 0.21},
      {"measurement": "Difference, UBE3A RNA level", "setting": "[5]", "result": 0.21},
      {"measurement": "Difference, UBE3A RNA level", "setting": "[6]", "result": 0.03},
      {"measurement": "Difference, UBE3A RNA level", "setting": "[7]", "result": 0.03}
    ]},
    {"compound": "C^O*U^O*G^O*G^O*t*g*t*c*a*a*c*a*a*g*C^O*C^O*A^O*A^O [ASO-6.1]", "values": [
      {"measurement": "effect on UBE3A RNA levels (in words)", "result": "increasing RNA levels in dose dependent manner"}
    ]}
  ]
}
